# Reference: ChEMBL document CHEMBL1201862, “PubChem BioAssay data set” (2004)
#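 Briefly, cells in 96-well plates were exposed to five compound concentrations for 48 h, and endpoints were estimated by linear interpolation. GI50 = concentration required for 50% inhibition of growth.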 Active and inactive are the calls of the source. Cut-off read from the data, not from the text of the source: active = GI50 up to about 1.1 µM and inactive = higher.
# Columns and labels:
# Assay in all cases: growth of human tumour cells (NCI), 48 h
# [1] = system: A498
# [2] = system: A549
# [3] = system: HCT-116
# [4] = system: HT-29
# [5] = system: Hs-578T
# [6] = system: LOX IMVI
# [7] = system: MCF7
# [8] = system: MDA-MB-231
# [9] = system: MDA-N
# [10] = system: MOLT-4
# [11] = system: NCI-H23
# [12] = system: NCI-H460
# [13] = system: RPMI-8226
# [14] = system: SK-MEL-2
# [15] = system: SN12C
# [16] = system: SW-620
# [17] = system: U-251
# [18] = system: UACC-62
Compound,GI50 [1],GI50 [2],GI50 [3],GI50 [4],GI50 [5],GI50 [6],GI50 [7],GI50 [8],GI50 [9],GI50 [10],GI50 [11],GI50 [12],GI50 [13],GI50 [14],GI50 [15],GI50 [16],GI50 [17],GI50 [18]
CC(C)NC(=O)CN1CCN(C2=CC(=O)c3c(O)ccc(O)c3C2=O)CC1,24.2 µM (inactive),16.4 µM (inactive),2.96 µM (inactive),3.62 µM (inactive),25.9 µM (inactive),6.1 µM (inactive),2.71 µM (inactive),26.3 µM (inactive),2.79 µM (inactive),17 µM (inactive),9.4 µM (inactive),13 µM (inactive),24.9 µM (inactive),16.6 µM (inactive),14.5 µM (inactive),4.25 µM (inactive),19.9 µM (inactive),5.18 µM (inactive)
COc1ccc2nc3cc(Cl)ccc3c(Nc3ccc(O)c(CN4CCN(C)CC4)c3)c2c1,4.51 µM (inactive),1.87 µM (inactive),1.75 µM (inactive),1.67 µM (inactive),1.89 µM (inactive),1.71 µM (inactive),1.64 µM (inactive),1.52 µM (inactive),1.67 µM (inactive),1.93 µM (inactive),1.89 µM (inactive),1.72 µM (inactive),1.9 µM (inactive),1.81 µM (inactive),1.85 µM (inactive),1.99 µM (inactive),1.67 µM (inactive),1.72 µM (inactive)
Nc1ncc2c(n1)-c1ccccc1OC2N1CCCCC1 (stereo not drawn),> 100 µM (inactive),> 100 µM (inactive),> 100 µM (inactive),> 100 µM (inactive),> 100 µM (inactive),> 100 µM (inactive),> 100 µM (inactive),> 100 µM (inactive),> 100 µM (inactive),> 100 µM (inactive),> 100 µM (inactive),> 100 µM (inactive),> 100 µM (inactive),> 100 µM (inactive),> 100 µM (inactive),> 100 µM (inactive),> 100 µM (inactive),> 100 µM (inactive)
COc1ccc(-c2cn3c(nc4ccccc43)c(/C=C/c3cccs3)n2)cc1,> 100 µM (inactive),55.6 µM (inactive),51.2 µM (inactive),29.8 µM (inactive),28.4 µM (inactive),35.3 µM (inactive),15 µM (inactive),> 100 µM (inactive),7.53 µM (inactive),–,33.8 µM (inactive),32.4 µM (inactive),15.4 µM (inactive),10.6 µM (inactive),> 100 µM (inactive),41.1 µM (inactive),53.1 µM (inactive),68.2 µM (inactive)
COC(=O)C1=NN2c3ccccc3C(=O)OCCC2C1 (stereo not drawn),> 100 µM (inactive),> 100 µM (inactive),> 100 µM (inactive),> 100 µM (inactive),> 100 µM (inactive),> 100 µM (inactive),> 100 µM (inactive),> 100 µM (inactive),> 100 µM (inactive),> 100 µM (inactive),> 100 µM (inactive),> 100 µM (inactive),> 100 µM (inactive),> 100 µM (inactive),> 100 µM (inactive),> 100 µM (inactive),> 100 µM (inactive),> 100 µM (inactive)
c1ccc(/N=C2/SC(c3ccccc3)(c3ccccc3)c3ccccc32)cc1,> 100 µM (inactive),> 100 µM (inactive),64.3 µM (inactive),> 100 µM (inactive),> 100 µM (inactive),71.6 µM (inactive),87.7 µM (inactive),> 100 µM (inactive),> 100 µM (inactive),> 100 µM (inactive),> 100 µM (inactive),> 100 µM (inactive),> 100 µM (inactive),> 100 µM (inactive),> 100 µM (inactive),> 100 µM (inactive),10.4 µM (inactive),> 100 µM (inactive)
COc1ccc(C2CC(C)(O)Oc3cc4c(cc32)OCO4)cc1 (stereo not drawn),30.9 µM (inactive),30.5 µM (inactive),30.6 µM (inactive),24.9 µM (inactive),26.6 µM (inactive),27.2 µM (inactive),34.9 µM (inactive),32.6 µM (inactive),10.5 µM (inactive),22.1 µM (inactive),33.7 µM (inactive),31.4 µM (inactive),27.4 µM (inactive),15.8 µM (inactive),45.8 µM (inactive),36 µM (inactive),31.4 µM (inactive),36.9 µM (inactive)
NS(=O)(=O)c1nnc(NS(=O)(=O)c2cccc3cccnc23)s1,> 100 µM (inactive),> 100 µM (inactive),> 100 µM (inactive),–,> 100 µM (inactive),> 100 µM (inactive),> 100 µM (inactive),> 100 µM (inactive),> 100 µM (inactive),> 100 µM (inactive),> 100 µM (inactive),> 100 µM (inactive),> 100 µM (inactive),> 100 µM (inactive),> 100 µM (inactive),> 100 µM (inactive),> 100 µM (inactive),> 100 µM (inactive)
Cc1nnc(SCc2nc(C#N)c(C#N)nc2CSc2nnc(C)s2)s1,27.4 µM (inactive),33.3 µM (inactive),4.55 µM (inactive),18.2 µM (inactive),17.1 µM (inactive),8.89 µM (inactive),12.3 µM (inactive),16.6 µM (inactive),17.6 µM (inactive),2.51 µM (inactive),19.1 µM (inactive),24.2 µM (inactive),2.93 µM (inactive),25.2 µM (inactive),17.3 µM (inactive),3.43 µM (inactive),18.7 µM (inactive),15.8 µM (inactive)
Cc1ccc(C)c(/C(=N\N=C(N)N)C2CC2)c1,47.5 µM (inactive),43.3 µM (inactive),26.4 µM (inactive),29.3 µM (inactive),26.1 µM (inactive),32.4 µM (inactive),47.8 µM (inactive),63.4 µM (inactive),23.4 µM (inactive),35.2 µM (inactive),20.7 µM (inactive),18.1 µM (inactive),28.8 µM (inactive),50.8 µM (inactive),56 µM (inactive),33.1 µM (inactive),17.4 µM (inactive),35.6 µM (inactive)
Nc1nc(N)c2cc(-c3cc4ccccc4[nH]3)ccc2n1,18.1 µM (inactive),32.2 µM (inactive),31.8 µM (inactive),15.5 µM (inactive),32.1 µM (inactive),18.5 µM (inactive),18.1 µM (inactive),17.2 µM (inactive),19.8 µM (inactive),26.5 µM (inactive),27.5 µM (inactive),19.2 µM (inactive),14.3 µM (inactive),18.2 µM (inactive),33 µM (inactive),30.8 µM (inactive),30.4 µM (inactive),17.4 µM (inactive)
c1ccc(NNN2NC(c3ccccc3)C2c2ccccc2)cc1 (stereo not drawn),> 100 µM (inactive),60 µM (inactive),79.4 µM (inactive),> 100 µM (inactive),> 100 µM (inactive),> 100 µM (inactive),98.2 µM (inactive),> 100 µM (inactive),> 100 µM (inactive),55 µM (inactive),92.3 µM (inactive),72.4 µM (inactive),> 100 µM (inactive),> 100 µM (inactive),> 100 µM (inactive),> 100 µM (inactive),> 100 µM (inactive),> 100 µM (inactive)
COC(=O)Cc1c(-c2[nH]c3ccccc3c2CC(=O)OC)[nH]c2ccccc12,38.3 µM (inactive),> 52.6 µM (inactive),> 54.2 µM (inactive),> 59.3 µM (inactive),> 68.4 µM (inactive),> 58.6 µM (inactive),> 41.1 µM (inactive),38.7 µM (inactive),> 53.8 µM (inactive),> 47.4 µM (inactive),> 55.5 µM (inactive),> 63 µM (inactive),> 37.7 µM (inactive),> 57.7 µM (inactive),> 59.4 µM (inactive),> 53.5 µM (inactive),51.1 µM (inactive),> 49 µM (inactive)
CC(CC(=O)CO[C@H]1[C@H](O)[C@@H](O)[C@@H](O)[C@@H]2NC(=O)c3c(cc4c(c3O)OCO4)[C@H]21)OC1OC(CO)C(O)C(O)C1O (stereo partly drawn),1.09 µM (active),0.646 µM (active),0.275 µM (active),0.452 µM (active),0.4 µM (active),0.255 µM (active),0.283 µM (active),0.355 µM (active),0.508 µM (active),0.25 µM (active),0.441 µM (active),0.432 µM (active),0.397 µM (active),0.242 µM (active),0.322 µM (active),0.374 µM (active),0.239 µM (active),0.733 µM (active)
O=C1C=C(C2=C(C3=CC(=O)c4ccccc4C3=O)C(=O)c3ccccc3C2=O)C(=O)c2ccccc21,16.9 µM (inactive),9.48 µM (inactive),4.84 µM (inactive),3.12 µM (inactive),11.5 µM (inactive),3.36 µM (inactive),7.69 µM (inactive),3.07 µM (inactive),2.25 µM (inactive),0.389 µM (active),7.43 µM (inactive),14.8 µM (inactive),3.48 µM (inactive),17.2 µM (inactive),7.26 µM (inactive),3.79 µM (inactive),4.48 µM (inactive),15.1 µM (inactive)
